# Patent US4785017A, “3,4-dihydro-2H-1-benzopyran derivatives” (Hoffmann-La Roche Inc., priority 1984, dated 1988)
# System: leukotriene D4 induced bronchoconstriction
# Assay: Oral Testing of Leukotriene Antagonists, leukotriene D4 challenge
# Type: in vivo, guinea pig (Hartley strain, Charles River)
# Conditions: 10 mg/kg by the oral route, two hours prior to challenge with leukotriene D4
# Description: (c) Oral Testing of Leukotriene Antagonists
# Male guinea pigs (Hartley strain, Charles River) weighing 400 to 600 g were anesthetized with urethane (2 g/kg) intraperitoneally and a polyethylene cannula was inserted into the jugular vein for intravenous drug administration. Tracheal pressure (cm water) was recorded from a Statham pressure transducer. After surgical preparation of the animals, a period of time was allowed for spontaneous breathing to stabilize. […] Two minutes later, spontaneous breathing was arrested with succinylcholine chloride (1.2 mg/kg, i.v.) and the animals ventilated with a Harvard (Model #680) small animal respirator set at 40 breaths per minute and 4.0 cc stroke volume. The animals were challenged with a maximum constrictory does of either leukotriene C4 or leukotriene D4 or leukotriene E4 (25 ug/kg, i.v.) at 5 minutes. Control vehicle or test drug (adjusted to an alkaline pH where necessary for drug solubilization) was administered (10 mg/kg, p.o.) two hours prior to challenge with leukotriene. In order to determine the ID50 for a test drug, the dose is varied from 10 mg/kg, p.o. to 100, 50, 30, 20, 5, 3 and 1 mg/kg, p.o.
# In order to determine oral duration of action, the time between exposure to test drug and challenge with leukotriene is varied.
smiles,measurement,value
"CCCc1c(OCCCCCOc2cc3c(cc2C(C)=O)CCC(CCCCC(=O)O)O3)ccc(C(C)=O)c1O (racemic) [racemic-6-acetyl-7-[5-(4-acetyl-3-hydroxy-2-propylphenoxy)pentyloxy]-3,4-dihydro-2H-1-benzopyran-2-pentanoic acid]",inhibition of leukotriene D4 induced bronchoconstriction,46±14%
